Data: patent US8852556B2, “Animal model for evaluating vasomotor response in vivo” (Janssen Research & Development LLC, priority 2008, dated 2014)

Key:
[1] = Plasma concentration of test compound after oral dosing in rabbits; format: in vivo, rabbit; conditions: 4 hours after the last dose; for concentration at 4 h: male, New Zealand, rabbit, plasma, rabbits, oral about 30 mg/kg for 4 days
Description: (§1) In another group, six adult New Zealand male rabbits (2.5-3.5 kg) were dosed orally (gavage with feeding tube) with the Imwitor/Cremophor/Water vehicle for 4 consecutive days during week 1. The vehicle (10% Imwitor, 20% Cremophor RH40 and 70% water, a light milky compound solution) was given in a total volume of 3 mL/kg per day. On day 4, three hours after oral dosing with vehicle or drug, the rabbits were anesthetized and measured for the vehicle's effect on CEA vessel lumen as described above. After week 1, the rabbits were allowed to recover for 3 days and were then orally dosed with a test compound such as torcetrapib or compound 2 at about 30 mg/kg for 4 consecutive days during week 2. On the 4th day of week 2, rabbit CEA diameter changes in response to test compounds were assessed with infusion of norepinephrine followed by acetylcholine as described above. Rabbits were again allowed to recover for an additional week to allow for drug elimination and were then subjected to daily vehicle dosing and CEA diameter changes in response to test compounds were assessed as described above.
A series of 5 images (approximately 5 minutes apart) of the CEA were taken and used for baseline lumen diameter (mm) and area (mm^2) measurements, respectively. The adrenergic agonist norepinephrine was slowly infused at about 28 μg per minute and maintained for the duration of the procedure. An infusion of acetylcholine was administered in escalating doses at about 10, 17, 30 and 56 μg/min, each for 15 minutes, in conjunction with the infusion of norepinephrine. The images were collected several times during each infusion period of 15 minutes. After the final acetylcholine and concurrent norepinephrine infusion period, all infusions were terminated and the vessel was allowed to return to its original size. About two mL of blood were sampled from the non-imaged contralateral CEA immediately after the last measurement. […] Plasma was kept in −80° C. until analyzed for the concentration of the tested compounds. […]

[2] = tested on: central ear artery of a rabbit; assay: Rabbit central ear artery (CEA) vasomotor response, lumen diameter and area by ultrasonic imaging; format: in vivo; conditions: for CEA lumen area after norepinephrine and acetylcholine (acetylcholine-induced vasodilation response) / CEA lumen diameter after norepinephrine and acetylcholine (acetylcholine-induced vasodilation response): norepinephrine-preconstricted CEA; for CEA lumen area after norepinephrine and acetylcholine (acetylcholine-induced vasodilation response): vehicle group 0.6 mm^2; for CEA lumen diameter after norepinephrine and acetylcholine (acetylcholine-induced vasodilation response): vehicle group 0.8 mm
Description: A group of six rabbits was anesthetized with a mixture of ketamine (50 mg/kg)/xylazine ([…]) administered intramuscularly and placed on a warming pad to maintain body temperature. Rabbit ear pinnae were shaved and depilitated using an over-the-counter depilatory agent. A segment of about 2 cm of the dorsal surface over the CEA on the right ear was coated with warmed ultrasonic gel. The baseline diameter and area of the rabbit's CEA were evaluated using a 23.5 MHz ultrasonic probe (model RMV 708). The images were recorded on a VISUALSONICS VEVO 600 system where the CEA lumen diameters and areas were subsequently measured. The vessel lumen diameter and area were expressed as mean and standard error of the mean (SEM). Norepinephrine and acetylcholine were infused in the contralateral left ear vein through a 27-gauge butterfly needle infusion set connected to an infusion pump. Images were obtained at about 5 minute intervals throughout the infusion periods.
To confirm that acetylcholine-induced vasodilation was NO-dependent, a second group of six rabbits was dosed with either the nitric oxide synthase inhibitor L-NAME (400 μg/mL) mixed in TANG® flavored drinking water (N=3) or TANG® flavored drinking water alone (N=3) for 5 consecutive days. L-NAME, N(G)-nitro-L-arginine-methyl ester, is an arginine derivative that blocks normal nitric oxide-dependent vasodilation. The rabbit CEA were then imaged on day 6. The rabbits were allowed to recover for about one week and then in crossover fashion each group of 3 was given the opposite treatment for 5 days and then imaged on day 6.
as §1
A series of 5 images (approximately 5 minutes apart) of the CEA were taken and used for baseline lumen diameter (mm) and area (mm^2) measurements, respectively. The adrenergic agonist norepinephrine was slowly infused at about 28 μg per minute and maintained for the duration of the procedure. An infusion of acetylcholine was administered in escalating doses at about 10, 17, 30 and 56 μg/min, each for 15 minutes, in conjunction with the infusion of norepinephrine. The images were collected several times during each infusion period of 15 minutes. After the final acetylcholine and concurrent norepinephrine infusion period, all infusions were terminated and the vessel was allowed to return to its original size. About two mL of blood were sampled from the non-imaged contralateral CEA immediately after the last measurement. All samples were collected into tubes containing EDTA and centrifuged at about 10,000 rpm for 6 minutes. Plasma was kept in −80° C. until analyzed for the concentration of the tested compounds. In addition, blood was taken from a naïve rabbit for generation of a standard drug concentration curve. […]

[3] = tested on: systolic blood pressure; conditions: patients receiving torcetrapib; cited from earlier work
[4] = oral about 30 mg/kg for 4 days, compared to vehicle

Compound	concentration at 4 h [1]	effect on acetylcholine-induced vasodilation in norepinephrine-preconstricted CEA [2, 4]	CEA lumen area after norepinephrine and acetylcholine (acetylcholine-induced vasodilation response) ([2]; oral dose 30 mg/kg for 4 days)	CEA lumen diameter after norepinephrine and acetylcholine (acetylcholine-induced vasodilation response) ([2]; oral dose 30 mg/kg for 4 days)	further results
O[C@@H](CN1c2cccc(-c3cccc(OC(F)(F)F)c3)c2CC[C@@H]1c1cccc(OC(F)(F)C(F)F)c1)C(F)(F)F [Compound 2, 1,1,1-Trifluoro-3-[2-{3-[(1,1,2,2-tetrafluoroethyl)oxy]phenyl}-5-{3-[(trifluoromethyl)oxy]phenyl}-3,4-dihydroquinolin-1(2H)-yl]propan-2-ol]	2580 ± 670 nM	does not affect	~0.6 mm^2	about 0.8 mm	plasma concentration of compound 2 relative to torcetrapib ([1]; same dose and regimen): approximately 2.5 fold
COC(=O)[C@@H](N)CCCNC(=N)N[N+](=O)[O-] [L-NAME, N(G)-nitro-L-arginine-methyl ester]					effect of L-NAME on acetylcholine-induced vasodilation in norepinephrine-preconstricted CEA ([2]; L-NAME 400 μg/mL in drinking water for 5 days, imaged day 6): inhibits this acetylcholine-induced vasodilation
NC[C@H](O)c1ccc(O)c(O)c1 [norepinephrine]					CEA lumen area during norepinephrine infusion ([2]; norepinephrine infused at about 28 μg per minute, baseline about 0.6-0.7 mm^2): about 0.2 mm^2; CEA lumen diameter during norepinephrine infusion ([2]; norepinephrine infused at about 28 μg per minute, baseline about 0.8-0.9 mm): about 0.5 mm
CCOC(=O)N1c2ccc(C(F)(F)F)cc2[C@@H](N(Cc2cc(C(F)(F)F)cc(C(F)(F)F)c2)C(=O)OC)C[C@H]1CC [torcetrapib, ethyl (2R,4S)-4-[[3,5-bis(trifluoromethyl)benzyl](methoxycarbonyl)amino]-2-ethyl-6-(trifluoromethyl)-3,4-dihydroquinoline-1(2H)-carboxylate]	~1010 nM	inhibits the acetylcholine-induced vasodilation	0.2 mm^2	about 0.45 mm	effect on baseline CEA lumen diameter and area (basal vascular tone) [2, 4]: caused a measurable baseline vasoconstriction; baseline CEA lumen diameter ([2]; oral dose 30 mg/kg for 4 days, prior to norepinephrine or acetylcholine, anesthetized rabbits, vehicle group 0.85 mm): about 0.55 mm; baseline CEA lumen area ([2]; oral dose 30 mg/kg for 4 days, prior to norepinephrine or acetylcholine, vehicle group 0.65 mm^2): about 0.3 mm^2; systolic blood pressure in patients [3]: higher systolic blood pressure
